Measured values as given in PMC7265341, “Quantifying CDK inhibitor selectivity in live cells” (Nature Communications, 2020).
Where two headings read alike, the source gives them in different places.

Key:
[1] = molecular target: CDK1/Cyclin E1 (Homo sapiens, UniProt P06493); assay: NanoBRET live-cell target engagement, CDK1-NanoLuc/Cyclin E1 in HEK-293; type: binding; settings: 10µM, read-out: CDK1/E1 Inhibition at 10µM (%)
[2] = molecular target: CDK2/Cyclin E1 (Homo sapiens, UniProt P24941); assay: NanoBRET live-cell target engagement, CDK2-NanoLuc/Cyclin E1 in HEK-293; type: binding; settings: 10µM, read-out: CDK2/E1 Inhibition at 10µM (%)
[3] = molecular target: CDK3/Cyclin E1 (Homo sapiens, UniProt Q00526); assay: NanoBRET live-cell target engagement, CDK3-NanoLuc/Cyclin E1 in HEK-293; type: binding; settings: 10µM, read-out: CDK3/E1 Inhibition at 10µM (%)
[4] = molecular target: CDK4/Cyclin D1 (Homo sapiens, UniProt P11802); assay: NanoBRET live-cell target engagement, NanoLuc-CDK4/Cyclin D1 in HEK-293; type: binding; settings: 10µM, read-out: CDK4/D1 Inhibition at 10µM (%)
[5] = molecular target: CDK5/CDK5R1 (Homo sapiens, UniProt Q00535); assay: NanoBRET live-cell target engagement, CDK5-NanoLuc/CDK5R1 in HEK-293; type: binding; settings: 10µM, read-out: CDK5/CDK5R1 Inhibition at 10µM (%)
CDK5/CDK5R1, sequence (Q00535 whole entry): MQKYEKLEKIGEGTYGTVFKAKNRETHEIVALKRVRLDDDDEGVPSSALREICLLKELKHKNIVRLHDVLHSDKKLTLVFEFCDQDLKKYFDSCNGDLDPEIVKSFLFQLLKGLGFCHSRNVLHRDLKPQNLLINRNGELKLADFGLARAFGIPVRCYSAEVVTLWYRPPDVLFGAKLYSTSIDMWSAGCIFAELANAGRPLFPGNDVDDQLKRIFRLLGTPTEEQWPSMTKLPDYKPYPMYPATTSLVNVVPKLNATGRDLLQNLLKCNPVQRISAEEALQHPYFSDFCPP
CDK5/CDK5R1, sequence (Q15078 whole entry partner): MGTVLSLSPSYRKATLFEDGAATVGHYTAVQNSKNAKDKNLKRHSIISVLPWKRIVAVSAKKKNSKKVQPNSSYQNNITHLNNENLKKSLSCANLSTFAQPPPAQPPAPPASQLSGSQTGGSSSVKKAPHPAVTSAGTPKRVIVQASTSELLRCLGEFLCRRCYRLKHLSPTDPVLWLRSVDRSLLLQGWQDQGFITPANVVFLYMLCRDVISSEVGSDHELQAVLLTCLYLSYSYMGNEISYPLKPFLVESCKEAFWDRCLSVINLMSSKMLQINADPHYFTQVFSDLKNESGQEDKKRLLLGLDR

[6] = molecular target: CDK7 (Homo sapiens, UniProt P50613); assay: NanoBRET live-cell target engagement, NanoLuc-CDK7 in HEK-293; type: binding; settings: 10µM, read-out: CDK7 Inhibition at 10µM (%)
CDK7, sequence (P50613 whole entry): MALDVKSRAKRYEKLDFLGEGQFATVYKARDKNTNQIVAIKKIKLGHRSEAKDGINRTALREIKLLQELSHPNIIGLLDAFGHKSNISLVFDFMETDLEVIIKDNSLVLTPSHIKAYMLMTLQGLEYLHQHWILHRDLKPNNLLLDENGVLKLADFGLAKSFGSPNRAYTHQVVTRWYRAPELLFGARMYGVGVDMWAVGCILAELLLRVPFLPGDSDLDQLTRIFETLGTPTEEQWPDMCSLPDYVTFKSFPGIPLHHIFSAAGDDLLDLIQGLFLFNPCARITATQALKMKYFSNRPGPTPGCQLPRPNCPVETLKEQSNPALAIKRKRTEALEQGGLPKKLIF

[7] = molecular target: CDK8/Cyclin C (Homo sapiens, UniProt P49336); assay: NanoBRET live-cell target engagement, NanoLuc-CDK8/Cyclin C in HEK-293; type: binding; settings: 10µM, read-out: CDK8/C Inhibition at 10µM (%)
CDK8/Cyclin C, sequence (P49336 whole entry): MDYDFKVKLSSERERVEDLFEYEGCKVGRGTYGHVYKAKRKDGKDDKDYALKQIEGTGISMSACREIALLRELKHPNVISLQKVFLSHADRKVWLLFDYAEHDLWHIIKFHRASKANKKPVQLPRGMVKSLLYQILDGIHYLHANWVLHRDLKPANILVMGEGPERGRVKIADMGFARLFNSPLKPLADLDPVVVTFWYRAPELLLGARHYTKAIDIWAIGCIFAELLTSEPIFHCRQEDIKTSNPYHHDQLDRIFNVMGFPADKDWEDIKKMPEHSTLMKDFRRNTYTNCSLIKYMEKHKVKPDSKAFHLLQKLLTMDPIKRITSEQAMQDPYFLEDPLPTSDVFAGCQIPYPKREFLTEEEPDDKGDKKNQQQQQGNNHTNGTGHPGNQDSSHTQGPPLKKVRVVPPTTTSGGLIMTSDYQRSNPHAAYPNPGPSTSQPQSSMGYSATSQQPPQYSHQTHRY
CDK8/Cyclin C, sequence (P24863 whole entry partner): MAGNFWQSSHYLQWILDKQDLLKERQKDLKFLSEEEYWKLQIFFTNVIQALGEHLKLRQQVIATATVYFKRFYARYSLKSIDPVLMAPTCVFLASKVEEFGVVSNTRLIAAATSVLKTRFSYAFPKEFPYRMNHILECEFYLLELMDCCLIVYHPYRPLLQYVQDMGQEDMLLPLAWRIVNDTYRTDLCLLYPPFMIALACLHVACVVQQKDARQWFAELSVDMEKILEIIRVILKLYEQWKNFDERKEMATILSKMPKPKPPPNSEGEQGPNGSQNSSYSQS

[8] = molecular target: CDK9/Cyclin K (Homo sapiens, UniProt P50750); assay: NanoBRET live-cell target engagement, NanoLuc-CDK9/Cyclin K in HEK-293; type: binding; settings: 10µM, read-out: CDK9/K Inhibition at 10µM (%)
CDK9/Cyclin K, sequence (P50750 whole entry): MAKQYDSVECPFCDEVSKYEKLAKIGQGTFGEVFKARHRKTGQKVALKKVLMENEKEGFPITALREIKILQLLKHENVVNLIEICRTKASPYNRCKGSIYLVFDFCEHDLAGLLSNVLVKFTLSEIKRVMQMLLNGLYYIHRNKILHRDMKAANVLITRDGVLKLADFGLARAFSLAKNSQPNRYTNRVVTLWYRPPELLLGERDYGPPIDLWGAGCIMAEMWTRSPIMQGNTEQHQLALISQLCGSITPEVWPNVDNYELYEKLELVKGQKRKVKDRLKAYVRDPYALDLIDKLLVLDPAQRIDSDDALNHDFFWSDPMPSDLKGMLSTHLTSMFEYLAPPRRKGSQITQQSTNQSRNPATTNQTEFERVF
CDK9/Cyclin K, sequence (O75909 whole entry partner): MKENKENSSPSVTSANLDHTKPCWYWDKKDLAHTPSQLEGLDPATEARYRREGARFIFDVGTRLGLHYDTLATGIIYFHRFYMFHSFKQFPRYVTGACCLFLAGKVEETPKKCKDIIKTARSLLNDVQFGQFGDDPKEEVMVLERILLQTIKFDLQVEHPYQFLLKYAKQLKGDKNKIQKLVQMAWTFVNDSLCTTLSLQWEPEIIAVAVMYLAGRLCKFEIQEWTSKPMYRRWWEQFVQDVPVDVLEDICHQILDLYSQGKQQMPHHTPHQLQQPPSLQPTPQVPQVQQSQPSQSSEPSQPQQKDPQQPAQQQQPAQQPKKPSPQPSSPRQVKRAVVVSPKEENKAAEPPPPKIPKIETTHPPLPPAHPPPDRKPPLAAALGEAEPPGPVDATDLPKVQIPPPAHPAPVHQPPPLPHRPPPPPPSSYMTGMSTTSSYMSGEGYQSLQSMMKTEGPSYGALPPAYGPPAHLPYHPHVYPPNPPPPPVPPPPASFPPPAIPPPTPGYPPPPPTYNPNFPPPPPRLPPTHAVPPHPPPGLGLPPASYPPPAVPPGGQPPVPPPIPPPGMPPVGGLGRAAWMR

[9] = molecular target: T1, CDK11A/Cyclin L2 (Homo sapiens, UniProt Q9UQ88); assay: NanoBRET live-cell target engagement, CDK11A-NanoLuc/Cyclin L2 in HEK-293; type: binding; settings: 10µM, read-out: CDK11a/L2 Inhibition at 10µM (%)
T1 sequence (Q9UQ88 1-783): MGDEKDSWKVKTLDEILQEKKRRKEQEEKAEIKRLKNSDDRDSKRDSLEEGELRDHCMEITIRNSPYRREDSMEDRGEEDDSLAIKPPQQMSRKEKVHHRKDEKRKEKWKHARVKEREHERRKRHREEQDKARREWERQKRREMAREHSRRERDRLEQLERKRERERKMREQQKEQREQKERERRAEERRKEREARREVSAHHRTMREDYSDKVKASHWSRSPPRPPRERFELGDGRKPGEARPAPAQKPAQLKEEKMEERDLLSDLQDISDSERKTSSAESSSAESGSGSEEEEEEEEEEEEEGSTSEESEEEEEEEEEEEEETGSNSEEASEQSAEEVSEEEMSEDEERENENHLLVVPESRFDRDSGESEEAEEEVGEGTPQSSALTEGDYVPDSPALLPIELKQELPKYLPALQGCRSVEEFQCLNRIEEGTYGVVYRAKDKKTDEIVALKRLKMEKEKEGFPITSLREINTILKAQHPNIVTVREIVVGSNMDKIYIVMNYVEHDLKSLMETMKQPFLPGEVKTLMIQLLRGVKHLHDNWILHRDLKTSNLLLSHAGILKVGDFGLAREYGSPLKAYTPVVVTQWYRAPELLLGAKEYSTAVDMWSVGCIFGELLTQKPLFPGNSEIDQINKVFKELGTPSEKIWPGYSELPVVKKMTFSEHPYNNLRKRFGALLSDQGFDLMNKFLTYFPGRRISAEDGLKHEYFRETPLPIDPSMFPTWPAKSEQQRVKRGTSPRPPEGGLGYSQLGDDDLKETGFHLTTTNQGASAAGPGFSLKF

[10] = molecular target: CDK11B/Cyclin L2 (Homo sapiens, UniProt P21127); assay: NanoBRET live-cell target engagement, CDK11B-NanoLuc/Cyclin L2 in HEK-293; type: binding; settings: 10µM, read-out: CDK11b/L2 Inhibition at 10µM (%)
[11] = molecular target: CDK12/Cyclin K (Homo sapiens, UniProt Q9NYV4); assay: NanoBRET live-cell target engagement, CDK12-NanoLuc/Cyclin K in HEK-293; type: binding; settings: 10µM, read-out: CDK12/K Inhibition at 10µM (%)
[12] = molecular target: CDK13/Cyclin K (Homo sapiens, UniProt Q14004); assay: NanoBRET live-cell target engagement, CDK13-NanoLuc/Cyclin K in HEK-293; type: binding; settings: 10µM, read-out: CDK13/K Inhibition at 10µM (%)
[13] = molecular target: CDK14/Cyclin Y (Homo sapiens, UniProt O94921); assay: NanoBRET live-cell target engagement, CDK14-NanoLuc/Cyclin Y in HEK-293; type: binding; settings: 10µM, read-out: CDK14/Y Inhibition at 10µM (%)
CDK14/Cyclin Y, sequence (O94921 whole entry): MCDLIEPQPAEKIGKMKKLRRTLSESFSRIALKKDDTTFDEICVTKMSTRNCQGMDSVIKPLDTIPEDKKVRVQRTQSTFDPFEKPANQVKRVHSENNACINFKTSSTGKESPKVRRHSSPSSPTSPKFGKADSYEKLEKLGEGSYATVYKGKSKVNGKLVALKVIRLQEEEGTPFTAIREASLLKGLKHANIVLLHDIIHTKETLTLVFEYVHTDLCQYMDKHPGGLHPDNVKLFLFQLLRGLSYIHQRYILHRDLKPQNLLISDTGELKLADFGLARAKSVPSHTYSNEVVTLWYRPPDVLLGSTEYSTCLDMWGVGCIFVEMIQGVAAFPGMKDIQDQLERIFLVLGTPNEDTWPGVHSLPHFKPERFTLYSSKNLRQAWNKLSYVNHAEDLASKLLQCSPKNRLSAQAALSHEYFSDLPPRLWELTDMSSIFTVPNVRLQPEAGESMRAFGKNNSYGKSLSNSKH
CDK14/Cyclin Y, sequence (Q8ND76 whole entry partner): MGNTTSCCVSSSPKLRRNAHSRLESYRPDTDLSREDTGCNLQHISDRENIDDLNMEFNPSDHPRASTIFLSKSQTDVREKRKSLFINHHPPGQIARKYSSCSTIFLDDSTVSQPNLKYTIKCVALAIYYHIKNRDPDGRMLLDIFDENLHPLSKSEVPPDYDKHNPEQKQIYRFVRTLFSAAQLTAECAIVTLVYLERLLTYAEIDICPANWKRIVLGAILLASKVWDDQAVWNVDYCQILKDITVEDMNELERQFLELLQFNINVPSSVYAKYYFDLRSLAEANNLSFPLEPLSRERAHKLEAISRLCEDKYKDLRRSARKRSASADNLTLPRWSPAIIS

[14] = molecular target: CDK15/Cyclin Y (Homo sapiens, UniProt Q96Q40); assay: NanoBRET live-cell target engagement, NanoLuc-CDK15/Cyclin Y in HEK-293; type: binding; settings: 10µM, read-out: CDK15/Y Inhibition at 10µM (%)
[15] = molecular target: CDK16/Cyclin Y (Homo sapiens, UniProt Q00536); assay: NanoBRET live-cell target engagement, CDK16-NanoLuc/Cyclin Y in HEK-293; type: binding; settings: 10µM, read-out: CDK16/Y Inhibition at 10µM (%)
[16] = molecular target: CDK17/Cyclin Y (Homo sapiens, UniProt Q00537); assay: NanoBRET live-cell target engagement, CDK17-NanoLuc/Cyclin Y in HEK-293; type: binding; settings: 10µM, read-out: CDK17/Y Inhibition at 10µM (%)
CDK17/Cyclin Y, sequence (Q00537 whole entry): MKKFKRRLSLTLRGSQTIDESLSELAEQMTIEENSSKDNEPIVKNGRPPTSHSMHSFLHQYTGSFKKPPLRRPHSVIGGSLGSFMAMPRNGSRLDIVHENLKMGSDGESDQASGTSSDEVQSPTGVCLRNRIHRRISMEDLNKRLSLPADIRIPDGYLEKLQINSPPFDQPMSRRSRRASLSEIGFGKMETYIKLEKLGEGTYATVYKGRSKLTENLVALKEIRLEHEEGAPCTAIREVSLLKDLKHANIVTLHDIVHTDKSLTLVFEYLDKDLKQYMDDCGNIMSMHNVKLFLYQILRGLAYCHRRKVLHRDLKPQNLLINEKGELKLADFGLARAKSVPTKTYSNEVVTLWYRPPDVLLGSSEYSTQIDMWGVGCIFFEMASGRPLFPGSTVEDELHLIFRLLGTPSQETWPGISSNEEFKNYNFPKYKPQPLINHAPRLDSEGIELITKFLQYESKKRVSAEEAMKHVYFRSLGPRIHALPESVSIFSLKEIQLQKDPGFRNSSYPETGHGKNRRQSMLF
CDK17/Cyclin Y, sequence (Q8ND76 whole entry partner): as the sequence (Q8ND76 whole entry partner) above

[17] = molecular target: CDK20/Cyclin H (Homo sapiens, UniProt Q8IZL9); assay: NanoBRET live-cell target engagement, NanoLuc-CDK20/Cyclin H in HEK-293; type: binding; settings: 10µM, read-out: CDK20/H Inhibition at 10µM (%)
[18] = molecular target: CDK19/Cyclin C (Homo sapiens, UniProt Q9BWU1); assay: NanoBRET live-cell target engagement, NanoLuc-CDK19/Cyclin C in HEK-293; settings: read-out: CDK19/C Inhibition at 10µM (%), 10µM
[19] = molecular target: CDK10/Cyclin L2 (Homo sapiens, UniProt Q15131); assay: NanoBRET live-cell target engagement, CDK10-NanoLuc/Cyclin L2 in HEK-293; settings: read-out: CDK10/L2 Inhibition at 10µM (%), 10µM

CDK1/Cyclin E1, sequence (P06493 whole entry): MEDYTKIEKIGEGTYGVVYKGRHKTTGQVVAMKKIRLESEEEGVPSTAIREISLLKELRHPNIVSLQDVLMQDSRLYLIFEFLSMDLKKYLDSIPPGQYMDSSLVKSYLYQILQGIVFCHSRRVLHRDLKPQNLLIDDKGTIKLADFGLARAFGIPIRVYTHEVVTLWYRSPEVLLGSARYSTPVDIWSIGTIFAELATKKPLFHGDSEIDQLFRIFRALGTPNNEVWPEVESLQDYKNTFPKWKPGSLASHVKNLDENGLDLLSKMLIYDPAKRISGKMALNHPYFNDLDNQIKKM
CDK1/Cyclin E1, sequence (P24864 whole entry partner): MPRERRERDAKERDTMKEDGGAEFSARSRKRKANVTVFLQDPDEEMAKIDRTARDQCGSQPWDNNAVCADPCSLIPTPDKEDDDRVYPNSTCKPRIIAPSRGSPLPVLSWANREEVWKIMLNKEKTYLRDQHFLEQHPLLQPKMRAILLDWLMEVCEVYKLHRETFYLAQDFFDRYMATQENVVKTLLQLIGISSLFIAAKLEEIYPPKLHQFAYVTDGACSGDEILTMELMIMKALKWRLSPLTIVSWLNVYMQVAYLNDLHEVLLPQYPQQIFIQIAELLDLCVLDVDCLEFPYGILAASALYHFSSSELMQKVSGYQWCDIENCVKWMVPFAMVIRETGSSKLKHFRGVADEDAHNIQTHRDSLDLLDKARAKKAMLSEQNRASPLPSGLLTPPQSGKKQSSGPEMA

## CC(C)[C@H](CO)Nc1nc(Nc2ccc(C(=O)O)c(Cl)c2)c2ncn(C(C)C)c2n1 [Purvalanol B]
[1]; average of experiments
  inhibition at 10 µM: 21.2%
[1]; independent experiment 1
  inhibition at 10 µM: 18.1%
[1]; independent experiment 2
  inhibition at 10 µM: 24.3%
[2]; average of experiments
  inhibition at 10 µM: 66.9%
[2]; independent experiment 1
  inhibition at 10 µM: 79.7%
[2]; independent experiment 2
  inhibition at 10 µM: 54%
[3]; average of experiments
  inhibition at 10 µM: 39.4%
[3]; independent experiment 1
  inhibition at 10 µM: 41.5%
[3]; independent experiment 2
  inhibition at 10 µM: 37.2%
[4]; average of experiments
  inhibition at 10 µM: -37.2%
[4]; independent experiment 1
  inhibition at 10 µM: 8.3%
[4]; independent experiment 2
  inhibition at 10 µM: -82.7%
[5]; average of experiments
  inhibition at 10 µM: 63.7%
[5]; independent experiment 1
  inhibition at 10 µM: 36.3%
[5]; independent experiment 2
  inhibition at 10 µM: 91%
[6]; average of experiments
  inhibition at 10 µM: -0.0779%
[6]; independent experiment 1
  inhibition at 10 µM: -0.361%
[6]; independent experiment 2
  inhibition at 10 µM: 0.2%
[7]; average of experiments
  inhibition at 10 µM: 1.6%
[7]; independent experiment 1
  inhibition at 10 µM: 3.2%
[7]; independent experiment 2
  inhibition at 10 µM: -0.0599%
[8]; average of experiments
  inhibition at 10 µM: 8.4%
[8]; independent experiment 1
  inhibition at 10 µM: -0.3%
[8]; independent experiment 2
  inhibition at 10 µM: 17.1%
[9]; average of experiments
  inhibition at 10 µM: -4.5%
[9]; independent experiment 1
  inhibition at 10 µM: -2.4%
[9]; independent experiment 2
  inhibition at 10 µM: -6.6%
[10]; average of experiments
  inhibition at 10 µM: 3.9%
[10]; independent experiment 1
  inhibition at 10 µM: 7.1%
[10]; independent experiment 2
  inhibition at 10 µM: 0.8%
[11]; average of experiments
  inhibition at 10 µM: 1.7%
[11]; independent experiment 1
  inhibition at 10 µM: 4.5%
[11]; independent experiment 2
  inhibition at 10 µM: -1.1%
[12]; average of experiments
  inhibition at 10 µM: 2.3%
[12]; independent experiment 1
  inhibition at 10 µM: 3%
[12]; independent experiment 2
  inhibition at 10 µM: 1.7%
[13]; average of experiments
  inhibition at 10 µM: -0.116%
[13]; independent experiment 1
  inhibition at 10 µM: -3.3%
[13]; independent experiment 2
  inhibition at 10 µM: 3.1%
[14]; average of experiments
  inhibition at 10 µM: 0.0365%
[14]; independent experiment 1
  inhibition at 10 µM: 4.9%
[14]; independent experiment 2
  inhibition at 10 µM: -4.9%
[15]; independent experiment 1
  inhibition at 10 µM: 11.3%
[15]; independent experiment 2
  inhibition at 10 µM: -5.5%
[16]; average of experiments
  inhibition at 10 µM: 2.5%
[16]; independent experiment 1
  inhibition at 10 µM: 0.32%
[16]; independent experiment 2
  inhibition at 10 µM: 4.7%
[17]; independent experiment 1
  inhibition at 10 µM: -3.3%
[17]; independent experiment 2
  inhibition at 10 µM: -1.2%
[18]; average of experiments
  inhibition at 10 µM: 8%
[18]; independent experiment 1
  inhibition at 10 µM: 12.7%
[18]; independent experiment 2
  inhibition at 10 µM: 3.4%
[19]; average of experiments
  inhibition at 10 µM: -1.9%
[19]; independent experiment 1
  inhibition at 10 µM: -2.4%
[19]; independent experiment 2
  inhibition at 10 µM: -1.5%
